Data: patent US7745465B2, “Method of enhancing cellular production of molecular chaperone, hydroxylamine derivatives useful for enhancing the chaperone production and the preparation thereof” (CytRx Corporation, priority 1995, dated 2010)

Columns and labels:
Male Sprague-Dawley rats = assay: Protection against cardiac ischaemia: survival after 5 minutes coronary occlusion and reperfusion; type: in vivo, rat; conditions: i.v. 1 mg/kgbw, 5 min. before the occlusion; non-treated control 10
Protocol: Male Sprague-Dawley rats (380-450 g b.w.) were anaesthetized with sodiumpentobarbital (Nembutal 60 mg/kg body weight, i.p.) and artificially ventilated with room air (2 ml/100 g; 54 stroke/minutes) via tracheotomy. The right carotid artery was catheterized and connected to a pressure transducer (BPR-01, Stoelting) for the measurement of systemic arterial blood pressure (BP) by means of a preamplifier (Hg-02, Experimetria). Hydroxylamine derivatives disclosed in Example 5 were administered via the venous cannule to jugular vein (i.v.) and orally (p.o.). Heart rate (HR) was measured by a cardiotachometer (HR-01, Experimetria). The electrocardiogram (ECG standard lead II) was recorded on a devices recorder (MR-12, Medicor) by means of subcutaneous steel needles electrodes. The chest was opened by a left thoracotomy and the heart was exteriorized by a gentle pressure on the right side of the rib cage. A 4-0 silk suture was quickly placed under the main left coronary artery as described by Selye et al. (1960). The heart was carefully replaced in the chest and the animal left to recover. Rectal temperature was monitored and kept constant at 37 C. The experimental protocol was initiated with a 15 minute stabilization period during which the observation of a sustained blood pressure less than 70 mmHg and or the occurrence of anhythmia led to exclusion. Myocardial ischemia was induced with coronary occlusion for 5 minutes and reperfusion allowed for 10 minutes.
During the entire experiment BP, HR and ECG were continuously registered on a multiscriptor (R61-6CH, Medicor). Hydroxylamine derivatives, the tautomeric forms of which are represented by structures (I) and (II), were administered 5 to 60 minutes before the occlusion after i.v. and p.o. treatment, respectively. […]
The mean duration of ventricular tachycardia (VT) and/or ventricular fibrillation (VF) during the first 3 minutes of reperfusion was analyzed by one-way analysis of variance. The incidence of VF was analyzed using a chi-square test. […] The haemodynamic variables were analyzed using Student's “t”-test. The critical level of significance was set at p<0.05. All results were expressed as a means±S.E.M. Drugs were administered i.v. in a dose of 1 mg/kgbw 5 min. before the occlusion.
The hydroxylamine derivatives that are found to be particularly advantageous for protecting an animal against ischemic/reperfusion injury are listed below. Survival (%) indicates the percent of animals survived the effects of 5 minutes coronary occlusion.

HSP72 = assay: Heat stress induced HSP72 production in 3T3 cells; type: cell-based, mouse; conditions: 10^−5 M
Protocol: From the applied cells the 3T3 and L-929 mouse fibroblasts were cultured in MEM medium and grew in monolayer, the U-937 human leukemia cells were maintained in RPMI-1640 medium, in suspension culture, while the HeLa human epithelial cells were cultured in DMEM medium and in monolayer form. Cell cultures were maintained as described in example 6.2 (a) with the difference that cells were cultured in the above mentioned culture mediums.
Experiments were carried out applying stress before and after the drug treatment. Stress was provoked by heat, by chemical agent, HgCl2 treatment. The test compounds were applied in the treatments at the 10^−5 M concentration.
The experiments on 3T3 cell applying heat stress were performed as described in the 6.2. (c) point of example 6, with the difference that stress was induced by a 30 min. exposure at 43° C. temperature and treatment with the test compounds was performed 15 min. before or 100 min. after the heat stress.
Immunodetection was carried out using the HSP72 specific SPA 810 (StressGene) primary and the horse-radish peroxidase conjugated A9044 (Sigma) secondary antibodies. Densitometric evaluation was performed by a LKB Ultrascan XL densitometer.

[1] = treatment 15 min. before 30 min. 43° C. heat stress
[2] = treatment 100 min. after 30 min. 43° C. heat stress

Row | Molecule | Survival (%) (Male Sprague-Dawley rats) | HSP72 level relative to the stress exposed control (HSP72; [1]) | HSP72 level relative to the stress exposed control (HSP72; [2])
1 | CC(C)NCC(O)CON=C(Cl)c1cccc(C(F)(F)F)c1.Cl (centres unmarked) [Example 10, N-[2-hydroxy-3-[(1-methylethyl)amino]propoxy]-3-trifluoromethyl-benzene-carboximidoyl chloride monohydrochloride] | 67 | – | –
2 | O=C(O)/C=C\C(=O)O.OC(CON=C(Cl)c1cccnc1)CN1CCCC1 (centres unmarked) [N-[2-hydroxy-3-(pyrrolidin-1-yl)-propoxy]-3-pyridincarboximidoyl chloride (Z)-2-butendioate (1:1)] | 67 | – | –
3 | O=C(O)/C=C\C(=O)O.OC(CON=C(Cl)c1cccnc1)CN1CCCCC1 (single isomer, unassigned; (-)) [(−)N-[2-hydroxy-3-(1-piperidinyl)-propoxy]-3-pyridine-carboximidoyl-chloride-(Z)-2-butenedioate(1:1)] | – | +++ (>100%) | –
4 | COC(=NOCC(O)CN1CCCCC1)c1cccnc1.O=C(O)/C=C\C(=O)O (centres unmarked) [Example 66, Methyl-N-[2-hydroxy-3-(1-piperidinyl)propoxy]-3-pyridinecarboximidate (Z)-2-butenedioate (1:1)] | 57 | – | –
5 | CN(C)C(=Nc1ccccc1)NOCC(O)CN1CCCCC1.Cl (centres unmarked) [Example 71, N,N-dimethyl-N′-[2-hydroxy-3-(1-piperidinyl)-propoxy]-N″-phenyl-guanidine hydrochloride] | – | 0 (0 indicates that the treatment altered by ±20% the stress induced hsp72 level in the cells) | –
6 | O=C(O)/C=C\C(=O)O.c1cncc(C2=NOCC(CN3CCCCC3)O2)c1 (centres unmarked) [3-(3-piridyl)-5-[(1-piperidinyl)-methyl]-5,6-dihydro-6H-1,4,2-dioxazine-(Z)-2-butenedioate(1:1)] | – | ++ (51-100%) | –
7 | COC(=NOCCCN1CCCCC1)c1cccnc1.O=C(O)/C=C\C(=O)O [Methyl-{N-[3-(1-piperidinyl)-propoxy]}-3-pyridine-carboximidate maleate] | – | 0 (0 indicates that the treatment altered by ±20% the stress induced hsp72 level in the cells) | –
8 | CC(C)(C)NCC(O)CONC(=N)c1cccc(C(F)(F)F)c1.Cl.Cl (centres unmarked) [Example 47, N-[3-[(1,1-dimethylethyl)amino]-2-hydroxypropoxy]-3-trifluoromethyl-benzenecarboximidamide dihydrochloride] | 100 | – | –
9 | O=C(O)/C=C\C(=O)O.OC(CON=C(Cl)c1ccncc1)CN1CCCCC1 (centres unmarked) [Example 8, N-[2-hydroxy-3-(1-piperidinyl)propoxy]-4-pyridinecarboximidoyl chloride (Z)-2-butenedioate (1:1)] | 100 | – | ++ (51-100%)
10 | Cl.Cl.N=C(NOCC(O)CN1CCCCC1)c1cnc2ccccc2c1 (centres unmarked) [Example 42] | – | +++ (>100%) | +++ (>100%)
11 | CC(C)(C)NC(=O)NOCC(O)CN1CCCCC1 (centres unmarked) [Example 62, N-tert-butyl-N′-[(2-hydroxy-3-(1-piperidinyl)propoxy)]-urea] | 57 | – | –
12 | Cl.c1ccc(C2=NOCC(CN3CCCCC3)O2)cc1 (centres unmarked) [3-phenyl-5-[(1-piperidinyl)-methyl]-5,6-dihydro-6H-1,4,2-dioxazine hydrochloride] | – | ++ (51-100%) | –
13 | O=C(NOCC(O)CN1CCCCC1)c1cccc2ccccc12 (centres unmarked) [Example 54, N-[2-hydroxy-3-(1-piperidinyl)propoxy]naphthalene-1-carboxamide] | 80 | +++ (>100%) | ++ (51-100%)
14 | Cl.c1cncc(C(=NOCCCN2CCCCC2)N2CCCC2)c1 [N-[3-(I-piperidinyl)-propoxy]-N′-tetramethylene-3-pyridine-carboxamidine hydrochloride] | – | +++ (>100%) | –
15 | Cl.OC(CON(C(=Nc1ccccc1)c1ccccc1)c1ccccc1)CN1CCCCC1 (centres unmarked) [Example 73] | – | 0 (0 indicates that the treatment altered by ±20% the stress induced hsp72 level in the cells) | –
16 | Cl.OC(CON=C(Cl)c1cccc(C(F)(F)F)c1)CN1CCCCC1 (centres unmarked) [Example 13, N-[2-hydroxy-3-(1-piperidinyl)propoxy]-3-trifluoromethyl-benzenecarboximidoyl chloride monohydrochloride] | 60 | – | –

Row | Molecule | Survival (%) (Male Sprague-Dawley rats) | HSP72 level relative to the stress exposed control (HSP72; [1]) | HSP72 level relative to the stress exposed control (HSP72; [2])
17 | N-[2-hydroxy-3-(1-piperidinyl)-propoxy]-benzylurethane | – | 0 (0 indicates that the treatment altered by ±20% the stress induced hsp72 level in the cells) | –
18 | N-(2-hydroxy-3-piperidino-propoxy)-ethylurethane | – | + (21-50%) | –
19 | CCCNC(=O)NOCC(O)CN1CCCCC1 (centres unmarked) [Example 56, N-[2-hydroxy-3-(1-piperidinyl)propoxy]-N′-propyl-urea] | – | +++ (>100%) | –
20 | CN(OCCCN1CCCCC1)C(=O)c1cccc(C(F)(F)F)c1.Cl [N-methyl-N-[3-(1-piperidinyl)-propoxy]-m-trifluoromethyl-benzamide hydrochloride] | – | +++ (>100%) | –
21 | CC(=O)OC(CONC(=O)NC1CCCCC1)CN1CCCCC1.Cl (centres unmarked) [N-cyclohexyl-N′-[2-acetoxy-3-(1-piperidinyl)-propoxy]-urea hydrochloride] | – | 0 (0 indicates that the treatment altered by ±20% the stress induced hsp72 level in the cells) | –
22 | N=C(NOCC(CN1CCCCC1)OC(=O)c1ccccc1)c1cccnc1.O=C(O)/C=C\C(=O)O (centres unmarked) [Example 20, N-[2-benzoyloxy-3-(1-piperidinyl)propoxy]-3-pyridinecarboximidamide (Z)-2-butenedioate (1:1)] | 100 | – | –
23 | COc1ccc(CC(Cl)=NOCC(O)CN2CCCCC2)cc1OC (centres unmarked) [N-[2-hydroxy-3-(1-piperidyl)-propoxy]-∀-(3,4-dimethoxy-phenyl)-acetimidoyl chloride] | 67 | – | –
24 | CCCCCCNC(=O)N(C)OCCCN1CCCCC1 [N-[3-(I-piperidinyl)-propoxy]-N-methyl-N′-(n-hexyl)-urea] | – | 0 (0 indicates that the treatment altered by ±20% the stress induced hsp72 level in the cells) | –
25 | Cl.OC(CON=C(Cl)c1ccco1)CN1CCCCC1 (centres unmarked) [Example 7, N-[2-hydroxy-3-(1-piperidinyl)propoxy]-2-furanecarboximidoyl chloride monohydrochloride] | 80 | – | –
26 | O=C(NOCC(O)CN1CCCCC1)Nc1cccc([N+](=O)[O-])c1 (centres unmarked) [Example 63, N-(3-nitro-phenyl)-N′-[(2-hydroxy-3-(1-piperidinyl)propoxy)]-urea] | 50 | – | –
27 | CN(C)C(=NOCCCN1CCCCC1)Nc1ccccc1.Cl [N,N-dimethyl-N′-phenyl-N″-[3-(1-piperidinyl)-propoxy]-guanidine hydrochloride] | – | ++ (51-100%) | –
28 | O=C(O)/C=C\C(=O)O.OC(CON=C(Cl)c1cccnc1)CN1CCOCC1 (centres unmarked) [N-[2-hydroxy-3-(morpholin-1-yl-propoxy]-3-pyridincarboxamidoyl chloride (Z)-2-butendioate (1:1)] | 71 | – | –
29 | CC(C)(C)NCC(O)CON=C(Cl)c1cccnc1.O=C(O)/C=C\C(=O)O (centres unmarked) [N-[2-hydroxy-3-(tert-butyl-amino)-propoxy]-3-pyridincarboxamidoyl chloride (Z)-2-butendioate (1:1)] | 57 | – | –
30 | CCN(CC)CC(O)CON=C(Cl)c1cccnc1.Cl (centres unmarked) [N-[2-hydroxy-3-(diethyl-amino)-propoxy]-3-pyridincarboximidoyl chloride hydrochloride (1:1)] | 62 | – | –
31 | CC(C)NCC(O)CON=C(Cl)c1cccnc1.O=C(O)/C=C\C(=O)O (centres unmarked) [N-[2-hydroxy-3-prop-2-yl-amino)-propoxy]-3-pyridincarboximidoyl chloride (Z)-butendioate (1:1)] | 60 | – | –
